Results taken from patent US11969428B2, “Methods and pharmaceutical compositions for treating lymphoid malignancy” (priority 2011, dated 2024).

Experiments:
Assay in all cases: Ambit KinomeScan screening
Type in all cases: binding
Settings in all cases: CAL-130 10 μM
ACVRL1 = molecular target: T1, ACVRL1 (Homo sapiens, UniProt P37023)
T1 construct: purchased Ambit (KinomeScan screening)
In short: (§1)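 Read-out is % of control binding: the tagged kinase retained on an immobilized bait ligand when CAL-130 is present at 10 μM. A lower percentage reflects stronger compound interaction, and anything over 35% counts as no hit.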

BMX = molecular target: T2, BMX (Homo sapiens, UniProt P51813)
T2 construct: unspecified tag ("tagged kinases"); purchased Ambit (KinomeScan screening)
In short: as §1

BTK = molecular target: T3, BTK (Homo sapiens, UniProt Q06187)
T3 construct: unspecified tag ("tagged kinases"); purchased Ambit (KinomeScan screening)
In short: as §1

CAMK1D = molecular target: T4, CAMK1D (Homo sapiens, UniProt Q8IU85)
T4 construct: unspecified tag ("tagged kinases"); purchased Ambit (KinomeScan screening)
In short: as §1

CAMKK1 = molecular target: T5, CAMKK1 (Homo sapiens, UniProt Q8N5S9)
T5 construct: purchased Ambit (KinomeScan screening)
In short: as §1

CDC2L1 = molecular target: T6, CDC2L1 (Homo sapiens, UniProt P21127)
T6 construct: purchased Ambit (KinomeScan screening)
In short: as §1

CDK7 = molecular target: T7, CDK7 (Homo sapiens, UniProt P50613)
T7 construct: purchased Ambit (KinomeScan screening)
T7 sequence (P50613 whole entry): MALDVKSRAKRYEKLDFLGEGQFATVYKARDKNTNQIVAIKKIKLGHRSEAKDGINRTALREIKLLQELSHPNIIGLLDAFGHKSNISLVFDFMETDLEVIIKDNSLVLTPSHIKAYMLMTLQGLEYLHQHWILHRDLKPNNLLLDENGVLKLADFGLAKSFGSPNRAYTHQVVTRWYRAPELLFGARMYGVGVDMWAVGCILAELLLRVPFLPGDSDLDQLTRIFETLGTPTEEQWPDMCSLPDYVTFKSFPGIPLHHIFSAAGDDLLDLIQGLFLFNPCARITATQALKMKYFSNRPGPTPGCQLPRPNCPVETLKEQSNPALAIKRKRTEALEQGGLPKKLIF
In short: as §1

CHEK2 = molecular target: T8, CHEK2 (Homo sapiens, UniProt O96017)
T8 construct: purchased Ambit (KinomeScan screening service)
In short: as §1

CSNK1G3 = molecular target: T9, CSNK1G3 (Homo sapiens, UniProt Q9Y6M4)
T9 construct: purchased Ambit (KinomeScan screening service)
In short: as §1

DCAMKL1 = molecular target: T10, DCAMKL1 (Homo sapiens, UniProt O15075)
T10 construct: unspecified tag ("tagged kinases"); purchased Ambit (KinomeScan screening service)
In short: as §1

DDR1 = molecular target: T11, DDR1 (Homo sapiens, UniProt Q08345)
T11 construct: unspecified tag ("tagged kinases"); purchased Ambit (KinomeScan screening service)
In short: as §1

EGFR(L861Q) = molecular target: T12, EGFR(L861Q) (Homo sapiens, UniProt P00533, L861Q)
T12 construct: unspecified tag; purchased Ambit (KinomeScan screening service)
In short: as §1

EPHA7 = molecular target: T13, EPHA7 (Homo sapiens, UniProt Q15375)
T13 construct: purchased Ambit (KinomeScan screening service)
In short: as §1

ERK8 = molecular target: T14, ERK8 (Homo sapiens, UniProt Q8TD08)
T14 construct: unspecified tag ("tagged kinases"); purchased Ambit (KinomeScan screening service)
In short: as §1

GSK3A = molecular target: T15, GSK3A (Homo sapiens, UniProt P49840)
T15 construct: unspecified tag ('tagged kinases'); purchased Ambit (KinomeScan screening service)
In short: as §1

KIT(D816V) = molecular target: T16, KIT(D816V) (Homo sapiens, UniProt P10721, D816V)
T16 construct: purchased Ambit (KinomeScan screening)
In short: as §1

MARK3 = molecular target: T17, MARK3 (Homo sapiens, UniProt P27448)
T17 construct: purchased Ambit (KinomeScan screening)
T17 sequence (P27448 whole entry): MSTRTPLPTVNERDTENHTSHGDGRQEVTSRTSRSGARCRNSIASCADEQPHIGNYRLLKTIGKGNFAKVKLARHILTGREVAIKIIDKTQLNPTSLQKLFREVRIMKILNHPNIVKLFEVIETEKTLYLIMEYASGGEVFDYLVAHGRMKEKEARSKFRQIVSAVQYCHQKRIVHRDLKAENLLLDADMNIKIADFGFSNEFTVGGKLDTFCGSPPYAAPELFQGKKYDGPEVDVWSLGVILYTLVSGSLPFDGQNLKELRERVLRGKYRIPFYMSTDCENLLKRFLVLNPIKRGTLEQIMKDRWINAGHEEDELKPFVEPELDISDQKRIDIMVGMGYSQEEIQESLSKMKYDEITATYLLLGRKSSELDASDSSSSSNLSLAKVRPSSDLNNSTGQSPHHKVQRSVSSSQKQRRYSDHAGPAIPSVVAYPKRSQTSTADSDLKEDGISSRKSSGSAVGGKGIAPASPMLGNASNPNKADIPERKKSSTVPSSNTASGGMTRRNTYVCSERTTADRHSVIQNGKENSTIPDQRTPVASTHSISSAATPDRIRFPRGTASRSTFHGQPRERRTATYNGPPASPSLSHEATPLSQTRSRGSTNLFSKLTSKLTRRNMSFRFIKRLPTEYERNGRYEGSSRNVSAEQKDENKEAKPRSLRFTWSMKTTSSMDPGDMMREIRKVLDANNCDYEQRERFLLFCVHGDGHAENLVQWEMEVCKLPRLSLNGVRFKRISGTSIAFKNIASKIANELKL
In short: as §1

MEK6 = molecular target: T18, MEK6 (Homo sapiens, UniProt P52564)
T18 construct: purchased Ambit (KinomeScan screening)
In short: as §1

MINK = molecular target: T19, MINK (Homo sapiens, UniProt Q8N4C8)
T19 construct: unspecified tag ('tagged kinases'); purchased Ambit (KinomeScan screening)
In short: as §1

MLK2 = molecular target: T20, MLK2 (Homo sapiens, UniProt Q02779)
T20 construct: unspecified tag ('tagged kinases'); purchased Ambit (KinomeScan screening)
In short: as §1

MLK3 = molecular target: T21, MLK3 (Homo sapiens, UniProt Q16584)
T21 construct: unspecified tag ('tagged kinases'); purchased Ambit (KinomeScan screening)
In short: as §1

MST1R = molecular target: T22, MST1R (Homo sapiens, UniProt Q04912)
T22 construct: unspecified tag ('tagged kinases'); purchased Ambit (KinomeScan screening)
In short: as §1

NDR1 = molecular target: T23, NDR1 (Homo sapiens, UniProt Q15208)
T23 construct: unspecified tag; purchased Ambit (KinomeScan screening panel)
In short: as §1

PFTAIRE2 = molecular target: T24, PFTAIRE2 (Homo sapiens, UniProt Q96Q40)
T24 construct: unspecified tag ('tagged kinases'); purchased Ambit (KinomeScan screening)
In short: as §1

PIK3CA = molecular target: T25, PIK3CA (Homo sapiens, UniProt P42336)
T25 construct: unspecified tag; purchased Ambit (KinomeScan screening panel)
T25 sequence (P42336 whole entry): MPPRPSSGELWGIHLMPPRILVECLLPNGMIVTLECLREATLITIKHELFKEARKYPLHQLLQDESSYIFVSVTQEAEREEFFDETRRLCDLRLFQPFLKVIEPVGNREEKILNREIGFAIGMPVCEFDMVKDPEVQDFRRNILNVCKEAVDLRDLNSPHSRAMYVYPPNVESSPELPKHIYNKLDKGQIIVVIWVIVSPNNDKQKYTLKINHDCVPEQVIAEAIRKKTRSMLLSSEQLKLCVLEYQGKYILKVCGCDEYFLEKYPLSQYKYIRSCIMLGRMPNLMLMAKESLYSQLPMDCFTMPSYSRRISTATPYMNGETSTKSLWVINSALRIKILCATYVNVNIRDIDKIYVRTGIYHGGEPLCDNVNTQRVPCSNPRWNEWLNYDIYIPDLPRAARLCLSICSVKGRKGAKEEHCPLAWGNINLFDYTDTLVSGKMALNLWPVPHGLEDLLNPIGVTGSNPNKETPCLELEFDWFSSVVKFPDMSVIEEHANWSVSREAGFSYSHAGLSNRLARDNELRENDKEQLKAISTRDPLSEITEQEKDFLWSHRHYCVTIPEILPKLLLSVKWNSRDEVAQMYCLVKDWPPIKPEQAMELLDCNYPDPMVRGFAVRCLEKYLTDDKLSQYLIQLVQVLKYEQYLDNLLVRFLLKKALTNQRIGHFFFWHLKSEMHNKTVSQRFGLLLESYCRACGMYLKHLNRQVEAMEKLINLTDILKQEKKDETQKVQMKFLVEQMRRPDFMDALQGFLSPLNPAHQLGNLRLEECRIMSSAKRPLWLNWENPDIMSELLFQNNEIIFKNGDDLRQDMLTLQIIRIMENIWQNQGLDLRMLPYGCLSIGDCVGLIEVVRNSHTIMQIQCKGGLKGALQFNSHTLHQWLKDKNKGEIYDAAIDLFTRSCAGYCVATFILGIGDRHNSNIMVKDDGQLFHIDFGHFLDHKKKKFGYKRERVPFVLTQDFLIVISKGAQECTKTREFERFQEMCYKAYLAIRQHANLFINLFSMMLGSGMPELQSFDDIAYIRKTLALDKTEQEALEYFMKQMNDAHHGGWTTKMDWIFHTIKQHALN
In short: as §1

PIK3CG = molecular target: T26, PIK3CG (Homo sapiens, UniProt P48736)
T26 construct: unspecified tag; purchased Ambit (KinomeScan screening panel)
T26 sequence (P48736 whole entry): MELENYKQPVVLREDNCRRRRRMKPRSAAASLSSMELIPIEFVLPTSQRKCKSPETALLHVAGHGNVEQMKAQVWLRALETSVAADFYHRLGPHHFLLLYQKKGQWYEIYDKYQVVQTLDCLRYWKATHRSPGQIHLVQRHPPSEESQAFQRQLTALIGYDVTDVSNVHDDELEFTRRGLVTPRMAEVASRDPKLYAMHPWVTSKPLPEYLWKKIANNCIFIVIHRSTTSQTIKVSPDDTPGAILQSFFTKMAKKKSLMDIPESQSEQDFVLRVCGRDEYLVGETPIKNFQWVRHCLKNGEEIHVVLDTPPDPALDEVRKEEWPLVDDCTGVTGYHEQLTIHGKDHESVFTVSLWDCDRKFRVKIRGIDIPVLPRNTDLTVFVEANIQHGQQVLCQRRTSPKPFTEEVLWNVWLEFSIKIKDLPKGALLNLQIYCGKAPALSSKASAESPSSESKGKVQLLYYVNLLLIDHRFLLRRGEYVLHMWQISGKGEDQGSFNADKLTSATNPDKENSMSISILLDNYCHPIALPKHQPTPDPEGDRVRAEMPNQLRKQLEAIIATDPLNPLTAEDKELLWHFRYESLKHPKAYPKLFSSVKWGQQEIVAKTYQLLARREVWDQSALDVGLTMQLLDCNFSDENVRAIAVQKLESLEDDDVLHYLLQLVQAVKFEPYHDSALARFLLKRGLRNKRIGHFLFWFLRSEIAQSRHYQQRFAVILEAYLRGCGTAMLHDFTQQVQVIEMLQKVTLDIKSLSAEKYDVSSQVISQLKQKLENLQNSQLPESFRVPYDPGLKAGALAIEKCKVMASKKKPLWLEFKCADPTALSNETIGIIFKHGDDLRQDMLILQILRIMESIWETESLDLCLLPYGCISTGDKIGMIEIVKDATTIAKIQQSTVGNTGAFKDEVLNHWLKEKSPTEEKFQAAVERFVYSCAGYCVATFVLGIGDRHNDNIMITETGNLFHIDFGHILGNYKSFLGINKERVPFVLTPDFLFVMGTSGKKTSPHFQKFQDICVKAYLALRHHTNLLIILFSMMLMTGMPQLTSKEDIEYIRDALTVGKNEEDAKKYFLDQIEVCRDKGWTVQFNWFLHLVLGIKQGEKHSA
In short: as §1

PYK2 = molecular target: T27, PYK2 (Homo sapiens, UniProt Q14289)
T27 construct: tag (kind not specified); purchased Ambit (KinomeScan screening service)
In short: as §1

STK16 = molecular target: T28, STK16 (Homo sapiens, UniProt O75716)
T28 construct: purchased Ambit (KinomeScan screening service)
In short: as §1

TLK2 = molecular target: T29, TLK2 (Homo sapiens, UniProt Q86UE8)
T29 construct: unspecified tag (tagged kinase); purchased Ambit (KinomeScan screening)
In short: as §1

TYK2(JH1domain) = molecular target: T30, TYK2(JH1domain) (Homo sapiens, UniProt P29597)
T30 construct: TYK2(JH1domain); tag, kind not specified; purchased Ambit (KinomeScan screening service)
T30 sequence (P29597 897-1176 limits assumed): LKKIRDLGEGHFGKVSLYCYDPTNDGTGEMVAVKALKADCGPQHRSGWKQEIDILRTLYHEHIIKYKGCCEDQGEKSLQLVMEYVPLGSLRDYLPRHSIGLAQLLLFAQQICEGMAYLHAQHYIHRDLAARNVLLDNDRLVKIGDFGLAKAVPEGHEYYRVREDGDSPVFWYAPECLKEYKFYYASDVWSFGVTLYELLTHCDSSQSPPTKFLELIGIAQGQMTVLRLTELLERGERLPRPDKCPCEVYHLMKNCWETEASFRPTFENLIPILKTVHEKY
In short: as §1

TYK2(JH2domain) = molecular target: T31, TYK2(JH2domain) (Homo sapiens, UniProt P29597)
T31 construct: TYK2(JH2domain); tag, kind not specified; purchased Ambit (KinomeScan screening service)
In short: as §1

ULK3 = molecular target: T32, ULK3 (Homo sapiens, UniProt Q6PHR2)
T32 construct: tag, kind not specified; purchased Ambit (KinomeScan screening service)
T32 sequence (Q6PHR2 whole entry): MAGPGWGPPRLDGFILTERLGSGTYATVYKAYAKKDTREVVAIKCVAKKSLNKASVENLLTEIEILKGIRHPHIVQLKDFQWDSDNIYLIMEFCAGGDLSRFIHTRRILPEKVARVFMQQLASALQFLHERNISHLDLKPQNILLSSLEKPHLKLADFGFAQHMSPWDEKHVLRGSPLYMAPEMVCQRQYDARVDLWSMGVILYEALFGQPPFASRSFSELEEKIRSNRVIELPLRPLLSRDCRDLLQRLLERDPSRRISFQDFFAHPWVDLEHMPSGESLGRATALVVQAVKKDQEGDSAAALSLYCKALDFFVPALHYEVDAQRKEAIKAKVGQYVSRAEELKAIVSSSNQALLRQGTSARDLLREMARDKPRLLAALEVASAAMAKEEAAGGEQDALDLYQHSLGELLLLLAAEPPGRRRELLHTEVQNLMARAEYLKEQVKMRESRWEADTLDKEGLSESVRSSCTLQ
In short: as §1

ZAP70 = molecular target: T33, ZAP70 (Homo sapiens, UniProt P43403)
T33 construct: purchased Ambit (KinomeScan screening service)
T33 sequence (P43403 whole entry): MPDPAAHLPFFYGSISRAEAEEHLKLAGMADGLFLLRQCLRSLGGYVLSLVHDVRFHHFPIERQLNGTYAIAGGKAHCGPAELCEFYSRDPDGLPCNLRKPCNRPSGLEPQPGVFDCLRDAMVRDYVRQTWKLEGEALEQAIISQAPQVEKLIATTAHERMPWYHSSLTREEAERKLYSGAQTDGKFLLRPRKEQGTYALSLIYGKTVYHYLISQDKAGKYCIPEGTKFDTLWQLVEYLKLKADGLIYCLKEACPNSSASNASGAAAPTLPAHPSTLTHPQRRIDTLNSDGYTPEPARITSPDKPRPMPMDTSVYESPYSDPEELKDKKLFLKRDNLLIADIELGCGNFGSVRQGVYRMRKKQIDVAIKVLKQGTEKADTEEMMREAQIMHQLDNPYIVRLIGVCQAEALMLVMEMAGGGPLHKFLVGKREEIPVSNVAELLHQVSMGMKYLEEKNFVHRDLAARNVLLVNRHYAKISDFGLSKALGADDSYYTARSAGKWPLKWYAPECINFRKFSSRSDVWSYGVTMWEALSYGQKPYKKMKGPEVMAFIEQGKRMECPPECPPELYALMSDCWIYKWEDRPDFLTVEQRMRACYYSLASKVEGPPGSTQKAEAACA
In short: as §1

p38-γ = molecular target: T34, p38-γ (Homo sapiens, UniProt P53778)
T34 construct: purchased Ambit (KinomeScan screening service)
T34 sequence (P53778 whole entry): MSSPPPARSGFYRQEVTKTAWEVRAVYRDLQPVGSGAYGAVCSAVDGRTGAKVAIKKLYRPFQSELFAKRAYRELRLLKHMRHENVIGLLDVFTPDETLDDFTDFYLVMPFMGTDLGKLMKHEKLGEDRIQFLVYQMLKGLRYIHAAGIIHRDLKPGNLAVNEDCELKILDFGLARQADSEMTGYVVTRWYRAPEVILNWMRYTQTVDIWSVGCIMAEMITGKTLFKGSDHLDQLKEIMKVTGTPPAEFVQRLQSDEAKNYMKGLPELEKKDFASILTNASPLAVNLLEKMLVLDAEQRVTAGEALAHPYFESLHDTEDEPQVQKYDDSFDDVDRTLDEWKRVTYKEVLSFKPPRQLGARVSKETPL
In short: as §1

SMILES: Cc1ccccc1-n1c(C(C)Nc2nc(N)nc3nc[nH]c23)nc2cccc(C)c2c1=O (stereo not drawn) [CAL-130]
- Percent of Control Binding (ACVRL1): 100%
- Percent of Control Binding (BMX): 100%
- Percent of Control Binding (BTK): 100%
- Percent of Control Binding (CAMK1D): 100%
- Percent of Control Binding (CAMKK1): 100%
- Percent of Control Binding (CDC2L1): 100%
- Percent of Control Binding (CDK7): 100%
- Percent of Control Binding (CHEK2): 100%
- Percent of Control Binding (CSNK1G3): 100%
- Percent of Control Binding (DCAMKL1): 100%
- Percent of Control Binding (DDR1): 100%
- Percent of Control Binding (EGFR(L861Q)): 100%
- Percent of Control Binding (EPHA7): 100%
- Percent of Control Binding (ERK8): 100%
- Percent of Control Binding (GSK3A): 100%
- Percent of Control Binding (KIT(D816V)): 100%
- Percent of Control Binding (MARK3): 100%
- Percent of Control Binding (MEK6): 100%
- Percent of Control Binding (MINK): 100%
- Percent of Control Binding (MLK2): 100%
- Percent of Control Binding (MLK3): 100%
- Percent of Control Binding (MST1R): 100%
- Percent of Control Binding (NDR1): 100%
- Percent of Control Binding (PFTAIRE2): 100%
- Percent of Control Binding (PIK3CA; PI3KCA (Table 2)): 12%
- Percent of Control Binding (PIK3CA; PIK3CA (Table 1)): 12%
- Percent of Control Binding (PIK3CG; PI3KCG (Table 2)): 1.2%
- Percent of Control Binding (PIK3CG; PIK3CG / PI3Kγ (Table 1)): 10%
- Percent of Control Binding (PYK2): 100%
- Percent of Control Binding (STK16): 100%
- Percent of Control Binding (TLK2): 100%
- Percent of Control Binding (TYK2(JH1domain)): 100%
- Percent of Control Binding (TYK2(JH2domain)): 100%
- Percent of Control Binding (ULK3): 100%
- Percent of Control Binding (ZAP70): 100%
- Percent of Control Binding (p38-γ): 100%
